In patent US5008273A, “Amino acid derivatives and their pharmaceutical use” (Boehringer Ingelheim GmbH, priority 1985, dated 1991):

What follows are molecules tested against angiotensin converting enzyme (Homo sapiens, UniProt P12821) (assay: inhibition of the isolated angiotensin converting enzyme).
Assay type: biochemical
From the text: The following values were obtained for the inhibition of the isolated angiotensin converting enzyme: […]

Chain of angiotensin converting enzyme (P12821 30-1306, species assumed): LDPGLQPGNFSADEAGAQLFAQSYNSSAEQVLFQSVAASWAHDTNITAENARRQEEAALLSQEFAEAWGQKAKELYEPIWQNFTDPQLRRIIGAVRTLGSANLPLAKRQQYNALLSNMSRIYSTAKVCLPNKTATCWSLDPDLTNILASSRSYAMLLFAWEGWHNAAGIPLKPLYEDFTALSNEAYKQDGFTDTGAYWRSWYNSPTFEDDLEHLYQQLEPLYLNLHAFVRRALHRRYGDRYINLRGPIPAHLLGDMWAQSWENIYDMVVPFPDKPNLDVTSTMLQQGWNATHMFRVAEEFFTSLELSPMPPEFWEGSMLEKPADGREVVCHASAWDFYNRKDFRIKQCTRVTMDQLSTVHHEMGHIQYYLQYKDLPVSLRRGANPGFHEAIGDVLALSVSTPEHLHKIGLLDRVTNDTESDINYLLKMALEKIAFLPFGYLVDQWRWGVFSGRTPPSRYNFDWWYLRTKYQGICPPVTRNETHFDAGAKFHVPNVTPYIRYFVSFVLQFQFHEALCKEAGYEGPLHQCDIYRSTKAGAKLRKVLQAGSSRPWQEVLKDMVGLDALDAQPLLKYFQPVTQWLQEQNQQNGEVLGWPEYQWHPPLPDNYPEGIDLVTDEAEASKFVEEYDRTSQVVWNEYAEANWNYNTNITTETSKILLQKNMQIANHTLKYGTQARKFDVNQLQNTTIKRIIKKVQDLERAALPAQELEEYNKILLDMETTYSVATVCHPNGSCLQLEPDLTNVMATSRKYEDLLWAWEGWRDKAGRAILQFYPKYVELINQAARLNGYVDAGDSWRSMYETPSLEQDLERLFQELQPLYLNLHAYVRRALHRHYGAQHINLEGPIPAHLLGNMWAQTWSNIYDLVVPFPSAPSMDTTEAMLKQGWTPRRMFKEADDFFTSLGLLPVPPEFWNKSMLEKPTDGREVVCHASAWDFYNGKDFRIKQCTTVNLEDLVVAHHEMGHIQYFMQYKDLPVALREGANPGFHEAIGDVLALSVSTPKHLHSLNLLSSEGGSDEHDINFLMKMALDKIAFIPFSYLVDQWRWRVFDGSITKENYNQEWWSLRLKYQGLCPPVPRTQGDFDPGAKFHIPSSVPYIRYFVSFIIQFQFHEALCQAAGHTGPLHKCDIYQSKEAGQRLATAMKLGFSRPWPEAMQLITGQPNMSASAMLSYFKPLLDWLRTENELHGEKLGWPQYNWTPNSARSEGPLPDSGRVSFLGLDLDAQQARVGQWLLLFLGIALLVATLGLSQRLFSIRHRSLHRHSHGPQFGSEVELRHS

| IC50 | SMILES |
| --- | --- |
| 3.5 nM | NCCCC[C@H](N[C@@H](CCc1ccccc1)C(=O)O)C(=O)N1CCc2sccc2[C@H]1C(=O)O [Example 2, N-[N-(1(S)-Carboxy-3-phenylpropyl)-L-lysyl]4,5,6,7-tetrahydro-thieno[3,2-c]pyridine-4(S)-carboxylic acid] |
| 18 nM | NCCCC[C@H](N[C@@H](CCc1ccccc1)C(=O)O)C(=O)N1CCc2ccsc2[C@@H]1C(=O)O [Example 4, N-[N-(1(S)-Carboxy-3-phenylpropyl)-L-lysyl]4,5,6,7-tetrahydro-thieno[2,3-c]pyridine-7(S)-carboxylic acid] |
| 14 nM | NCCCC[C@H](N[C@@H](CCc1ccccc1)C(=O)O)C(=O)N1Cc2sccc2C[C@H]1C(=O)O [Example 7, N-[N-(1(S)-Carboxy-3-phenylpropyl)-L-lysyl]-4,5,6,7-tetrahydro-thieno[2,3-c]pyridine-5(S)-carboxylic acid] |
| 2.9 nM | NCCCC[C@H](N[C@@H](CCc1ccccc1)C(=O)O)C(=O)N1Cc2ccsc2C[C@H]1C(=O)O [Example 10, N-[N-(1(S)-Carboxy-3-phenylpropyl)-L-lysyl]-4,5,6,7-tetrahydro-thieno[3,2-c]pyridine-6(S)-carboxylic acid] |
